In the supplement of paper PMC10307832:

Tests used:
Experiment in all cases: relative viability (nuclei count vs DMSO), 5 days (fraction); higher = more cells survive
[1] = compound: Cc1sc2c(c1C)C(c1ccc(Cl)cc1)=N[C@@H](CC(=O)OC(C)(C)C)c1nnc(C)n1-2 [JQ1]
Summary of the method: (§1)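 Lung cancer cell lines received five library-drug doses (not always all listed) spaced by √10, pinned on vehicle-anchored 1536-well plates after an overnight stay at 37 °C. Five days later, with no medium change, nuclei were Hoechst-stained, imaged at 4× and counted with MetaXpress. Viability is treated-well nuclei relative to vehicle-well nuclei, as a median across plates. Passing plates had control CV below 25% and at least one doubling.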

[2] = compound: O=C(O)CCCCC(CCSCc1ccccc1)SCc1ccccc1 [CPI-613]
Summary of the method: as §1

[3] = compound: COc1cc2nccc(Oc3ccc(NC(=O)Nc4cc(C)on4)c(Cl)c3)c2cc1OC [Tivozanib]
Summary of the method: as §1

[4] = compound: Cc1cnc(-c2cnc(NCCNc3ccc(C#N)cn3)nc2-c2ccc(Cl)cc2Cl)[nH]1
Summary of the method: as §1

[5] = compound: CC(=O)O[C@@]12CO[C@@H]1C[C@H](O)[C@@]1(C)C(=O)[C@H](O)C3=C(C)[C@@H](OC(=O)[C@H](O)[C@@H](NC(=O)OC(C)(C)C)c4ccccc4)C[C@@](O)([C@@H](OC(=O)c4ccccc4)[C@H]21)C3(C)C [Docetaxel]
Summary of the method: as §1

[6] = compound: O=c1[nH]c2ccccc2n1C1CCN(CCCC(c2ccc(F)cc2)c2ccc(F)cc2)CC1 [Pimozide]
Summary of the method: as §1

[7] = compound: Nc1ccn([C@@H]2O[C@H](CO)[C@@H](O)[C@@H]2O)c(=O)n1 [Cytarabine]
Summary of the method: as §1

Row | Cell Line | relative viability ([1]; 0.04 µM) | relative viability ([1]; 0.1265 µM) | relative viability ([1]; 0.4 µM) | relative viability ([1]; 1.265 µM) | relative viability ([1]; 4 µM) | relative viability ([2]; 5 µM) | relative viability ([2]; 15.81 µM) | relative viability ([2]; 50 µM) | relative viability ([2]; 158.11 µM) | relative viability ([2]; 500 µM) | relative viability ([3]; 0.005 µM) | relative viability ([3]; 0.01581 µM) | relative viability ([3]; 0.05 µM) | relative viability ([3]; 0.1581 µM) | relative viability ([3]; 0.5 µM) | relative viability ([4]; 0.08 µM) | relative viability ([4]; 0.253 µM) | relative viability ([4]; 0.8 µM) | relative viability ([4]; 2.53 µM) | relative viability ([5]; 0.0002 µM) | relative viability ([5]; 0.000632 µM) | relative viability ([5]; 0.002 µM) | relative viability ([5]; 0.006325 µM) | relative viability ([5]; 0.02 µM) | relative viability ([6]; 0.08 µM) | relative viability ([6]; 0.253 µM) | relative viability ([6]; 0.8 µM) | relative viability ([6]; 2.53 µM) | relative viability ([6]; 8 µM) | relative viability ([7]; 0.005 µM) | relative viability ([7]; 0.01581 µM) | relative viability ([7]; 0.05 µM) | relative viability ([7]; 0.1581 µM) | relative viability ([7]; 0.5 µM)
1 | NCI-H1975 | 0.953 | 0.643 | 0.782 | 0.597 | 0.53 | 0.919 | 0.901 | 0.984 | 0.87 | 0.075 | 0.842 | 0.922 | 0.991 | 0.852 | 0.786 | 0.859 | 0.888 | 0.813 | 0.647 | 0.916 | 0.702 | 0.344 | 0.213 | 0.168 | 0.916 | 0.941 | 0.92 | 0.966 | 0.775 | 1.07 | 1.08 | 0.987 | 0.546 | 0.35
2 | NCI-H1993 | 0.919 | 0.994 | 0.922 | 0.663 | 0.709 | 0.84 | 0.932 | 0.967 | 0.717 | 0.439 | 0.945 | 0.867 | 1.13 | 0.589 | 0.762 | 0.951 | 0.789 | 1.03 | 1.07 | 0.778 | 0.964 | 0.806 | 0.597 | 0.5 | 0.822 | 0.824 | 0.816 | 0.969 | 0.912 | 0.941 | 0.916 | 0.764 | 0.655 | 0.519
3 | NCI-H2009 | 0.96 | 0.645 | 0.574 | 0.297 | 0.313 | 0.995 | 0.939 | 0.923 | 0.24 | 0.0296 | 0.955 | 1 | 1.02 | 0.994 | 0.91 | 1.01 | 0.93 | 1.08 | 0.943 | 0.955 | 1 | 0.944 | 0.456 | 0.239 | 0.997 | 0.985 | 1.01 | 0.909 | 0.926 | 1.01 | 1.01 | 0.997 | 0.724 | 0.398
4 | NCI-H2023 | 0.893 | 0.665 | 0.439 | 0.243 | 0.207 | 0.926 | 0.836 | 0.91 | 0.0969 | 0.0098 | 0.966 | 0.951 | 0.927 | 0.847 | 0.923 | 1.32 | 0.794 | 1.06 | 0.939 | 0.846 | 0.547 | 0.147 | 0.12 | 0.0751 | 0.993 | 0.961 | 0.82 | 0.858 | 0.778 | 0.542 | 0.282 | 0.172 | 0.107 | 0.0892
5 | NCI-H2085 | 1.01 | 0.891 | 0.867 | 0.622 | 0.537 | 0.987 | 0.935 | 0.935 | 0.82 | 0.246 | 0.982 | 1 | 1.02 | 0.936 | 0.982 | 1.04 | 0.933 | 0.995 | 1.02 | 0.968 | 0.987 | 0.746 | 0.504 | 0.373 | 0.973 | 1.01 | 0.957 | 1.02 | 0.881 | 0.965 | 0.929 | 0.868 | 0.808 | 0.801
6 | NCI-H2087 | 0.996 | 0.661 | 0.963 | 0.581 | 0.451 | 0.971 | 1.09 | 0.954 | 0.307 | 0.0055 | 0.988 | 0.972 | 0.956 | 1.28 | 0.995 | 1.12 | 0.723 | 1.05 | 0.886 | 0.947 | 0.5 | 0.223 | 0.182 | 0.107 | 1.11 | 1.05 | – | 1.05 | 0.773 | 0.946 | 0.888 | 0.722 | 0.614 | 0.36
7 | NCI-H2126 | 1.01 | 0.928 | 0.858 | 0.697 | 0.648 | 0.98 | 0.991 | 1.05 | 0.563 | 0.592 | 0.968 | 0.961 | 1.04 | 0.713 | 0.98 | 1.03 | 0.927 | 0.952 | 1.04 | 1.02 | 0.886 | 0.624 | 0.369 | 0.227 | 0.978 | 0.948 | 1.02 | 0.966 | 0.986 | 0.887 | 0.9 | 0.716 | 0.714 | 0.618
8 | NCI-H2170 | 1 | 0.778 | 0.908 | 0.711 | 0.503 | 0.939 | 0.903 | 0.998 | 0.802 | 0.301 | 0.928 | 0.923 | 0.956 | – | 1.02 | 1.1 | 0.655 | 0.989 | 0.958 | 1.01 | 0.999 | 0.828 | 0.271 | 0.201 | 1.05 | 0.94 | 0.956 | 0.945 | 0.947 | 0.822 | 0.741 | 0.688 | 0.463 | 0.402
9 | NCI-H2228 | 0.927 | 0.857 | 0.876 | 0.462 | 0.406 | 0.915 | 0.931 | 0.893 | 0.744 | 0.0258 | 0.897 | 0.866 | 0.933 | 0.965 | 0.989 | 1.03 | 0.887 | 1.01 | 0.864 | 0.749 | 0.341 | 0.2 | 0.199 | 0.144 | 1.07 | 1.11 | 0.868 | 0.805 | 0.543 | 0.5 | 0.432 | 0.428 | 0.163 | 0.141
